For assay [1], the system named is HepG2 cells. The assay is described as follows: cell cycle analysis by flow cytometry (Hoechst 33342). The settings on record: 24h, mean ± SD of 3; for S phase, percent of HepG2 cells: listed as head printed "5" in Table 7. The assay is classed as cell-based, human. As to the method: (§1) Figure 4. Cell cycle analysis, cell proliferation and induction of the DNA double stand breaks (DBS) by the selected substituted 4,5'-bithiazole compound 1. (A) Percent of HepG2 cells in certain phases of cell cycle after 24h treatment to compound 1 at 50 µM and 10 µM in comparison with the solvent control (0). […] (B) Percent of proliferative cells after 24h treatment to compound 1 at 50 µM and 10 µM determined with the Ki67 antibody. (C) Results of the analyses of the induction of the DNA double strand breaks by γ-H2AX assay. Distribution of the fluorescent signals of individual cells in the samples is shown. Data are presented as quantile box plots. The edges of the box represent the 25th and 75th percentiles, the median is a solid line through the box, and the bars represent 95% confidence intervals. In each sample, 10^4 events were recorded, and experiments were repeated three times independently. Significant difference between treated cells and the solvent control (0) is indicated by * p < 0.05, ** p < 0.01 and *** p < 0.001.
(§2) After the exposure floating and adherent cells were collected by trypsinization. For the fixation the cells were centrifuged at 800 rpm, 4°C for 5 min, washed twice with ice cold PBS, resuspended in 0.5 mL cold PBS and ethanol (1.5 mL) was added drop wise into the cell pellet, while vortexing. The cells were fixed at 4°C overnight and stored at -20°C until analysis. Fixed cells were centrifuged at 1200 rpm for 10 min, washed with ice cold 1× PBS and labelled with Anti-H2AX pS139 antibodies (50-fold diluted) for DNA DBS analysis, Ki67 antibodies (50-fold diluted) for proliferation analysis and Hoechst 33342 dye for cell cycle analysis according to the manufacturer's protocol. Flow cytometric analysis was carried out on a MACSQuant Analyzer 10 (Miltenyi Biotech, Germany). FITC intensity, corresponding to proliferation marker Ki67+, was detected in the FITC-A channel and cell cycle analysis was detected in VioBlueA channel. APC intensity, corresponding to DSBs, was detected in the APC-A channel. Unspecific binding was checked with rea-FITC and rea-APC antibodies (Miltenyi Biotec, Germany). In each sample, 10 000 events were recorded. Independent experiments were repeated three times. […] For further analysis the raw data was exported from MACSQuantify software and it was converted to. fcs format and further to the .csv format. For the yH2AX foci analysis the statistical significance between treated groups and the vehicle control was determined with a linear mixed-effects model. Calculations were done with the statistical program R [49] and its packages reshape and nlme.
On the technique in general: Flow cytometry measures light scatter and fluorescence of single cells or particles in a stream.

The next assay has as its target T1, human topo IIα (Homo sapiens, UniProt P11388).
T1 construct: purchased Inspiralis (Norwich, UK)
The assay is described as follows: competitive ATPase assay at different ATP concentrations. The assay is classed as biochemical. As for the experimental part:
Then, we performed the competitive ATPase assay for compound 1, to investigate how our class of compounds affects the ATP hydrolysis in dependence of ATP concentration. Assay was performed at 8 different concentrations of ATP and compound 1. […] The assay was carried out in two parallels. […] In addition, we also calculated the IC50 values of compound 1 vs. different concentrations of the ATP.
Compound were analyzed using a linked ATPase assay in which the ADP produced by the hydrolysis of ATP leads to the conversion of NADH to NAD by a pyruvate kinase/lactate dehydrogenase mix. The disappearance of NADH was monitored at 340 nm. A mix of the assay buffer (5 µL of 10X buffer per assay: final conc. 20 mM Tris-HCl, 5 mM magnesium acetate, 125 mM potassium acetate, 2 mM DTT, pH 7.9), linear pBR322 (1.5 µL of 1mg/mL per assay), phosphoenol pyruvate (0.5 µL of 80 mM per assay), pyruvate kinase/lactate dehydrogenase mix (0.75 µL per assay), NADH (1 µL of 20 mM per assay), DMSO (1.5 µL per assay), and water (32.85 µL per assay) was made. 41.1 µL of this mixture was aliquoted into the wells of a 384-well microtiter plate. 0.5 µL of DMSO or the investigated compound were added to the wells and mixed. 5 µL of the dilution buffer or human topo IIα (200 nM stock giving the 12 nM final concentration) were then added and mixed. A pre-run was done before the run was started by adding 3.4 µL of the appropriate concentration of ATP and the OD340 monitored for up to 35 minutes. Assays were performed at 37 °C. Two negative controls (4 % DMSO and dilution buffer without enzyme) were run in the presence of 2 mM ATP. This assay was performed at 8 different concentrations of the ATP (0.025, 0.05, 0.075, 0.1, 0.25, 0.5, 0.75 and 1 mM). Assays were performed at 3.9, 31, 50, 75 and 100 µM final concentrations of the investigated compound 1. The final DMSO concentration in all the reactions was 4 % (v/v). Assay was performed in duplicate. The human topo competitive ATPase assay was performed in collaboration with Inspiralis (Norwich, UK).

The subject of assay [2] is HepG2 cells. The assay is described as follows: γ-H2AX assay, induction of DNA double strand breaks. The assay is classed as cell-based, human. Conditions: 24h, result in words. As for the experimental part:
as §1, with “The edges of the box represent the 25th and 75th percentiles, the median is a solid line through the box, and the bars represent 95% confidence intervals.” left out, “Significant difference between treated cells and the solvent control (0) is indicated by * p < 0.05, ** p < 0.01 and *** p < 0.001.” left out
After the exposure floating and adherent cells were collected by trypsinization. […] FITC intensity, corresponding to proliferation marker Ki67+, was detected in the FITC-A channel and cell cycle analysis was detected in VioBlueA channel. APC intensity, corresponding to DSBs, was detected in the APC-A channel. […] In each sample, 10 000 events were recorded. […] For the yH2AX foci analysis the statistical significance between treated groups and the vehicle control was determined with a linear mixed-effects model. […]

For assay [3], the system named is HepG2 cells. The assay is described as follows: cell proliferation, Ki-67 marker, flow cytometry. The settings on record: 24h. The assay is classed as cell-based, human. As to the method:
as §2, with “For” for “For further analysis the raw data was exported from MACSQuantify software and it was converted to. fcs format and further to the .csv format. For”, “Calculations were done with the statistical program R [49] and its packages reshape and nlme.” left out

Where “and” joins values, the source holds several entries; their conditions need not be identical. Identical values can stand only once.

T1 sequence (P11388 whole entry): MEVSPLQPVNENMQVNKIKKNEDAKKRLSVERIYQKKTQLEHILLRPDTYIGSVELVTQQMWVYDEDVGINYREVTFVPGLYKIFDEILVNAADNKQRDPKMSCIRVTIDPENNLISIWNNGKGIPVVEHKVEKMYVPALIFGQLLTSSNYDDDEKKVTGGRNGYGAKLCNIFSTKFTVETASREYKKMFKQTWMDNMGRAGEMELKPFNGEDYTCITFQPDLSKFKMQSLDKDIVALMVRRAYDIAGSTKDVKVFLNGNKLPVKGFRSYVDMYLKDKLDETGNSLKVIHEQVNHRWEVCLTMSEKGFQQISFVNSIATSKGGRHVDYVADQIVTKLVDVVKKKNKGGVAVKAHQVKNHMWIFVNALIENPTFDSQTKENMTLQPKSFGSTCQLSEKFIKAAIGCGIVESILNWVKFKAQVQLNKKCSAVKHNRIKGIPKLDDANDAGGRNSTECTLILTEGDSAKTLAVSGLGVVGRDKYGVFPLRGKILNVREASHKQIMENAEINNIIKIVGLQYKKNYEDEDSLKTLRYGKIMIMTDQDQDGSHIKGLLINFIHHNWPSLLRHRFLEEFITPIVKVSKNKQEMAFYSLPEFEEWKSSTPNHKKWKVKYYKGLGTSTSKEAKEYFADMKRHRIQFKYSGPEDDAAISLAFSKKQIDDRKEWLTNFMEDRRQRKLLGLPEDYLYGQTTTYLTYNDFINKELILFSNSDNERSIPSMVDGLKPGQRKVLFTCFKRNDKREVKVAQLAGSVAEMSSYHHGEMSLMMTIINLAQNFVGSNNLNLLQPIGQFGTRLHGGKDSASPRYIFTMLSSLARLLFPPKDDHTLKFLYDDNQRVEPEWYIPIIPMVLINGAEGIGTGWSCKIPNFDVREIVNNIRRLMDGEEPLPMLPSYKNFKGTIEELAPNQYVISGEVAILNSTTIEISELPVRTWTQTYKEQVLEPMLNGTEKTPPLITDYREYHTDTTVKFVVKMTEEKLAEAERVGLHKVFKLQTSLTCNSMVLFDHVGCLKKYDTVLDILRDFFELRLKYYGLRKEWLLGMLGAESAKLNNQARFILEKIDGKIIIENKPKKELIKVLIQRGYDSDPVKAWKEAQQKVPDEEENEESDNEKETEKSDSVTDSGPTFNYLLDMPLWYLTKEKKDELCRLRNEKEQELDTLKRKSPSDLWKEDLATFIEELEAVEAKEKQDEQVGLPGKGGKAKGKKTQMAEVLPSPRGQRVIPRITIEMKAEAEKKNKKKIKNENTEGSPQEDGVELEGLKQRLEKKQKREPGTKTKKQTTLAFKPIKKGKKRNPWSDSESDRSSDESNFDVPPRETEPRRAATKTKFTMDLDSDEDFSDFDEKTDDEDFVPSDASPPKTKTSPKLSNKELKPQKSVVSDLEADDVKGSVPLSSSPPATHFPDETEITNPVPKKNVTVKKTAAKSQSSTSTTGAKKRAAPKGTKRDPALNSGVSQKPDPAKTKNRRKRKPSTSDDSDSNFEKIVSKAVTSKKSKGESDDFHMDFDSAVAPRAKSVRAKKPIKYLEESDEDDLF

On to `Cc1nc(N)sc1-c1csc(Nc2ccc(C(F)(F)F)cc2)n1` [Compound 1, 4'-methyl-N2-(4-(trifluoromethyl)phenyl)-[4,5'-bithiazole]-2,2'-diamine], for which the “>G1, G2<, percent of HepG2 cells” value is 1.2 ± 1.0% in the assay on HepG2 cells [1] (10 µM) and 1.4 ± 0.6% with HepG2 cells [1] (50 µM). The “G1 phase, percent of HepG2 cells” value was 56.5% and 56.5 ± 6.4% with HepG2 cells [1] (10 µM); 60.6% and 60.6 ± 7.0^∗ % with HepG2 cells [1] (50 µM). Besides, the entries for the “G2 phase, percent of HepG2 cells” value in the assay with HepG2 cells [1] (10 µM) and in the assay on HepG2 cells [1] (50 µM) were 24.8 ± 4.5% and 26.2 ± 2.5%, respectively. Besides, the “S phase, percent of HepG2 cells” value with HepG2 cells [1] (10 µM) was 17.5% and 17.5 ± 1.1^∗∗∗ %; with HepG2 cells [1] (50 µM) it was 17.5% and 11.8 ± 4.5^∗∗ %. Besides, the IC50 at human topo IIα (c(ATP) 0.025) was found to be 3.8 µM; at human topo IIα (c(ATP) 0.05), 8.8 µM; on human topo IIα (c(ATP) 0.075), 14.8 µM; on human topo IIα (c(ATP) 0.1) it was 9.4 µM; on human topo IIα (c(ATP) 0.25), 18.3 µM; on human topo IIα (c(ATP) 0.5), 15.2 µM. Besides, the IC50 at human topo IIα (c(ATP) 0.75) came out at 17.8 µM; at human topo IIα (c(ATP) 1), 21.6 µM; at human topo IIα (c(ATP) 2) it was 25.4 µM. In addition, the “DNA DSB formation” value in the assay with HepG2 cells [2] (10 µM) and in the assay with HepG2 cells [2] (50 µM) was “no increase” throughout. For the same compound, the “Percent of cell proliferation (Ki-67 positive)” value in the assay with HepG2 cells [3] (10 µM) stood at 88.6%; in the assay on HepG2 cells [3] (50 µM) it was 81.3%.

As a reminder, the IC50 is the concentration that gives 50% inhibition.
